Data as given in ChEMBL document CHEMBL1150749, “Novel Cleistanthane Diterpenoids from Pogostemon auricularis” (1988).

Columns and labels:
Type in all cases: functional
Settings in all cases: Cavia porcellus
[1] = system: Ileum; test: Inhibition of spasmogen response in guinea pig ileum at 2.5 ug/mL
[2] = system: Ileum; test: Inhibition of spasmogen response in guinea pig ileum at 5 ug/mL
[3] = system: Ileum; test: Inhibition of spasmogen response in guinea pig ileum at 10 ug/mL

Q: `C=C[C@H]1C(=C)CC[C@H]2[C@H]1[C@@H](OC(C)=O)C[C@@H]1[C@]2(C)CCC[C@@]1(C)C(=O)O` was tested. Which inhibition at 2.5 µg/mL [1] did it give?
A: Its inhibition at 2.5 µg/mL is 10%.

Q: And the inhibition at 5 µg/mL [2]?
A: The inhibition at 5 µg/mL was 19%.

Q: What about the inhibition at 10 µg/mL [3] of the same compound?
A: The inhibition at 10 µg/mL was 69%.
